Assays:
[1] = tested on: Puccinia recondita f. Sp. Tritici; assay: Fungicidal activity against Puccinia recondita f. sp. tritici / wheat / leaf disc preventative (brown rust); format: in vivo; conditions: foliar, 200 ppm in the applied formulation, wheat leaf segments, preventative, compared to untreated control leaf disks, read-out: disease control
Method in brief: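 200 ppm spray on wheat cv. Kanzler leaf segments; spore inoculation +1 day; 19° C., 75% rh, 12 h/12 h light cycle; single rating of % control vs untreated at 7 to 9 days.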

[2] = tested on: Puccinia recondita f. Sp. Tritici; assay: Fungicidal activity against Puccinia recondita f. sp. tritici / wheat / leaf disc curative (brown rust); format: in vivo; conditions: foliar, 24 h, 200 ppm in the applied formulation, wheat leaf segments, curative (applied 1 day after inoculation), compared to untreated control leaf disks, read-out: disease control
Method in brief: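 Curative test on wheat leaf segments (cv. Kanzler) on agar, inoculated with spore suspension and held dark at 19° C, 75% RH; formulated compound in water applied 1 day after inoculation. Incubated at 19° C, 75% RH, 12 h light/12 h dark; percent disease control versus untreated scored 6 to 8 days after application.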

[3] = tested on: Phakopsora Pachyrhizi; assay: Fungicidal activity against Phakopsora pachyrhizi / soybean / leaf disc preventative (Asian soybean rust); format: in vivo; conditions: foliar, 200 ppm in the applied formulation, soybean leaf disks, compared to untreated control leaf disks, read-out: disease control
Method in brief: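 Scored 12 to 14 days post-application as percent control relative to untreated check discs, rust spores were sprayed under the disc one day after compound treatment. Incubation: 20°C, 75% rh, first 24–36 h in darkness, then 12 h daily light; discs kept on water agar.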

[4] = tested on: Glomerella lagenarium (Colletotrichum lagenarium); assay: Fungicidal activity against Glomerella lagenarium (Colletotrichum lagenarium) liquid culture / cucumber / preventative (anthracnose); format: cell-based; conditions: Colletotrichum orbiculare; 20 ppm in the applied formulation; liquid culture (PDB), growth inhibition measured photometrically after 3 to 4 days; compared to untreated control; read-out: disease control
Method in brief: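 Percent activity against the untreated check was derived from photometric growth measurements made 2 to 7 days after conidia in potato dextrose broth were combined with compound at 20 ppm. Cultures were kept dark at 24 °C and 96% humidity.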

N#CCC(=O)N(O)Cc1ccc(-c2noc(C(F)(F)F)n2)cc1 [Compound 1.771, 2-cyano-N-hydroxy-N-[[4-[5-(trifluoromethyl)-1,2,4-oxadiazol-3-yl]phenyl]methyl]-acetamide]
≥ 80%: pest or weed control at 200 ppm [1] | pest or weed control at 200 ppm [2] | pest or weed control at 200 ppm [3] | inhibition of growth at 20 ppm [4]

COC(C)C(=O)N(O)Cc1ccc(-c2noc(C(F)(F)F)n2)cc1 (stereo not shown) [Compound 1.772, N-hydroxy-2-methoxy-N-[[4-[5-(trifluoromethyl)-1,2,4-oxadiazol-3-yl]phenyl]methyl]-propanamide]
≥ 80%: pest or weed control at 200 ppm [1] | pest or weed control at 200 ppm [2] | pest or weed control at 200 ppm [3] | inhibition of growth at 20 ppm [4]

CC(=O)N(O)Cc1ccc(-c2noc(C(F)(F)F)n2)cc1 [Compound 1.773, N-hydroxy-N-[[4-[5-(trifluoromethyl)-1,2,4-oxadiazol-3-yl]phenyl]methyl]-acetamide]
≥ 80%: pest or weed control at 200 ppm [1] | pest or weed control at 200 ppm [2] | pest or weed control at 200 ppm [3] | inhibition of growth at 20 ppm [4]

O=C(CC1CC1)N(O)Cc1ccc(-c2noc(C(F)(F)F)n2)cc1 [Compound 1.774, 2-cyclopropyl-N-hydroxy-N-[[4-[5-(trifluoromethyl)-1,2,4-oxadiazol-3-yl]phenyl]methyl]-acetamide]
≥ 80%: pest or weed control at 200 ppm [1] | pest or weed control at 200 ppm [2] | pest or weed control at 200 ppm [3] | inhibition of growth at 20 ppm [4]

O=C(CC1CC1)ON(Cc1ccc(-c2noc(C(F)(F)F)n2)cc1)C(=O)CC1CC1 [Compound 1.775, [(2-cyclo-propylacetyl)-[[4-[5-(trifluoromethyl)-1,2,4-oxadiazol-3-yl]phenyl]methyl]-amino] 2-cyclopropylacetale]
≥ 80%: pest or weed control at 200 ppm [1] | pest or weed control at 200 ppm [2] | pest or weed control at 200 ppm [3] | inhibition of growth at 20 ppm [4]

CC(=O)ON(Cc1ccc(-c2noc(C(F)(F)F)n2)cc1)C(C)=O [Compound 1.776, (acetyl-[[4-[5-(trifluoromethyl)-1,2,4-oxadiazol-3-yl]phenyl]methyl]-amino] acetate]
≥ 80%: pest or weed control at 200 ppm [1] | pest or weed control at 200 ppm [2] | pest or weed control at 200 ppm [3] | inhibition of growth at 20 ppm [4]

COCC(=O)N(Cc1ccc(-c2noc(C(F)(F)F)n2)cc1)C1CC1 [Compound 1.777, N-cyclopropyl-2-methoxy-N-[[4-[5-(trifluoromethyl)-1,2,4-oxadiazol-3-yl]phenyl]methyl]-acetamide]
≥ 80%: pest or weed control at 200 ppm [1] | pest or weed control at 200 ppm [2] | pest or weed control at 200 ppm [3] | inhibition of growth at 20 ppm [4]

CON(Cc1ccc(-c2noc(C(F)(F)F)n2)cc1)C(=O)CO [Compound 1.778, 2-hydroxy-N-methoxy-N-[[4-[5-(trifluoromethyl)-1,2,4-oxadiazol-3-yl]phenyl]methyl]-acetamide]
≥ 80%: pest or weed control at 200 ppm [1] | pest or weed control at 200 ppm [2] | pest or weed control at 200 ppm [3] | inhibition of growth at 20 ppm [4]

CON(Cc1ccc(-c2noc(C(F)(F)F)n2)cc1)C(=O)C(C)(C)OC [Compound 1.779, N,2-dimethoxy-2-methyl-N-[[4-[5-(trifluoromethyl)-1,2,4-oxadiazol-3-yl]phenyl]methyl]-propanamide]
≥ 80%: pest or weed control at 200 ppm [1] | pest or weed control at 200 ppm [2] | pest or weed control at 200 ppm [3] | inhibition of growth at 20 ppm [4]

CN(Cc1ccc(-c2noc(C(F)(F)F)n2)cc1)C(=O)C(C)(C)O [Compound 1.781, 2-hydroxy-N,2-dimethyl-N-[[4-[5-(trifluoromethyl)-1,2,4-oxadiazol-3-yl]phenyl]methyl]-propanamide]
≥ 80%: pest or weed control at 200 ppm [1] | pest or weed control at 200 ppm [2] | pest or weed control at 200 ppm [3] | inhibition of growth at 20 ppm [4]

Source: patent US11180462B2, “Microbiocidal oxadiazole derivatives” (SYNGENTA PARTICIPATIONS AG, priority 2015, dated 2021)
